US20090028925A1, “Novel Phosphinic Acid-Containing Thyromimetics” (priority 2005, published 2009)
Read-outs that look alike come from different tables or passages of the source. Blank lines part the entries; values can stand above or below the compound they belong to.

Legend:
[1] = target: T1, human thyroid hormone receptors TRβ1 (Homo sapiens, UniProt P10828); assay: Receptor binding to TRβ1 (gel filtration and scintillation proximity assay, labeled T3); settings: read-out: Ki TRβ
T1 construct: made in house; host or cells: Sf9 insect cells (baculovirus)
T1 sequence (P10828 1-461): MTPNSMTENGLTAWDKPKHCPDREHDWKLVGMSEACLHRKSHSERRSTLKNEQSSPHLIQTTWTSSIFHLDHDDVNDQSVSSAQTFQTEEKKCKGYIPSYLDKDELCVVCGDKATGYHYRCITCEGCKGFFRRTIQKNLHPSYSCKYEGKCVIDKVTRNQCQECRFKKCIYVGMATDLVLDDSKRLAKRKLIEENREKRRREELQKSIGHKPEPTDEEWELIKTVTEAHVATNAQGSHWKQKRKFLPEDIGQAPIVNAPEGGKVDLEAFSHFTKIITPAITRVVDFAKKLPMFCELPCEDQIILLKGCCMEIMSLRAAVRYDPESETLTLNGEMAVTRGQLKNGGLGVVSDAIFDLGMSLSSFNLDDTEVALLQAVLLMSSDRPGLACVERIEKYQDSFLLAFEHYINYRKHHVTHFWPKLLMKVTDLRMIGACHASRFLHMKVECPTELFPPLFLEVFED
T1 sequence (P19793 1-462 partner): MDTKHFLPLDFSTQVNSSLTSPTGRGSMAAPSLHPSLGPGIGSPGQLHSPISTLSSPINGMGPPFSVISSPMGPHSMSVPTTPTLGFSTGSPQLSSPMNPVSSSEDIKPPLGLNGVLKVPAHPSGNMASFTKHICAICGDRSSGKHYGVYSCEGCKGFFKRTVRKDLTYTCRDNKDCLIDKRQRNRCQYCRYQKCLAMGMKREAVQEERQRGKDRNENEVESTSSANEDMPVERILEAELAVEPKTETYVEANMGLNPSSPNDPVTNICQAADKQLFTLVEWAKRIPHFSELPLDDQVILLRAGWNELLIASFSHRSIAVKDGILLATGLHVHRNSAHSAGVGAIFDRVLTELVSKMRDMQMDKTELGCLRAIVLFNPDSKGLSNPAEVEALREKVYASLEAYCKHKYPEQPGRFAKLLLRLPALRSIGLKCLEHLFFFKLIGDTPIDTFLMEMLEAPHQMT
Procedure: (§1) Methods: Baculoviruses expressing TRα1, TRβ1 and RXRα were generated using cDNA and other reagents from Invitrogen (Carlsbad, Calif.). To produce TR/RXR heterodimer proteins, the sf9 insect cells were first grown to a density of 1-5×10^5 cells/mL. […] and RXRα baculovirus stocks were added to the cell culture with a ratio of 1 to 1 (multiplicity of infection=10). The cells were harvested three days after the infection.
(§2) Binding of compounds to either the TRα1 or TRβ1 were also performed by means of scintillation proximity assays (SPA). The SPA assay, a common method used for the quantitation of receptor-ligand equilibria, makes use of special beads coated with a scintillant and a capture molecule, copper, which binds to the histidine-tagged α or β receptor.

plasma cholesterol = assay: Cholesterol lowering in hypercholesterolemic rats; assay type: in vivo; settings: for change in vivo at 0.2 mg/kg/day / change in vivo at 0.5 mg/kg/day: Rattus norvegicus, read-out: % Cholesterol Lowering; for cholesterol lowering / efficacy in lowering cholesterol: hypercholesterolemic rats; for cholesterol lowering: 0.5 mg/kg/d orally; for efficacy in lowering cholesterol: another experiment
[2] = target: T2, human thyroid hormone receptors TRα1 (Homo sapiens, UniProt P10827); assay: Receptor binding to TRα1 (gel filtration and scintillation proximity assay, labeled T3); settings: read-out: Ki TRα
T2 construct: made in house; host or cells: Sf9 insect cells (baculovirus)
T2 sequence (P10827 1-410 isoform P10827-2): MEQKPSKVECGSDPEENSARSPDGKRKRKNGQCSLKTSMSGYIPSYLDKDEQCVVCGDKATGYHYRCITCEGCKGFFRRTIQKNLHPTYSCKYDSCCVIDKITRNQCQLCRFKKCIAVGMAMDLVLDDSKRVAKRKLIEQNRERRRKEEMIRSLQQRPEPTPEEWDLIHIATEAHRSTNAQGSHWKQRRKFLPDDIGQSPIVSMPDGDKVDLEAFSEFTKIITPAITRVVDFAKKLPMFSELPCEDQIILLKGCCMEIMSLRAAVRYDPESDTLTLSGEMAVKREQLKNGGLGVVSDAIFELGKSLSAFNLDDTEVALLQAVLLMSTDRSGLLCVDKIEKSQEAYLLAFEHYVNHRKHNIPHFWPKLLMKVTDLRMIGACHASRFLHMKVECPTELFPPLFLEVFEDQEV
T2 sequence (P19793 1-462 partner): T1 sequence (P19793 1-462 partner)
Procedure: as §1, §2

[3] = ip, delivered i.p (0.2 mg/kg/d), percentage change from pre-dose cholesterol
[4] = po, delivered p.o. (0.2 mg/kg/d), percentage change from pre-dose cholesterol
[5] = po, delivered p.o. (0.5 mg/kg/d), percentage change from pre-dose cholesterol
[6] = delivered p.o. (0.5 mg/kg/d), percentage change from pre-dose cholesterol

Ki [1]: 26 nM
Ki ([2]; SPA data): 16 nM
SMILES: O=P(O)(O)Cc1cc(I)c(Oc2ccc(O)c(I)c2)c(I)c1 [Compound 6, 3,5-diiodo-4-(4′-hydroxy-3′-iodophenoxy)benzylphosphonic acid]
change in vivo at 0.2 mg/kg/day (plasma cholesterol; [3]): -20.5%

Ki ([1]; SPA data): 106 nM
Ki [2]: 1170 nM
SMILES: Cc1cc(OCP(=O)(O)O)cc(C)c1Cc1ccc(O)c(-c2ccccc2)c1 [Compound 7-1, [3,5-dimethyl-4-(4′-hydroxy-3′-phenylbenzyl)phenoxy]methylphosphonic acid]
change in vivo at 0.2 mg/kg/day (plasma cholesterol; [4]): -12.2%

Ki ([1]; SPA data): 6.6 nM
Ki ([2]; SPA data): 31 nM
SMILES: CCC(C)c1cc(Cc2c(C)cc(OCP(=O)(O)O)cc2C)ccc1O (stereo not drawn) [Compound 7-3, [3,5-dimethyl-4-(3′-sec-butyl-4′-hydroxybenzyl)phenoxy]methylphosphonic acid]
change in vivo at 0.2 mg/kg/day (plasma cholesterol; [3]): -45.4%
change in vivo at 0.2 mg/kg/day (plasma cholesterol; [4]): -36.5%

Ki ([1]; SPA data): 7.6 nM
Ki ([2]; SPA data): 98 nM
SMILES: Cc1cc(OC(F)(F)P(=O)(O)O)cc(C)c1Cc1ccc(O)c(C(C)C)c1 [Compound 7-6, difluoro-[3,5-dimethyl-4-(4′-hydroxy-3′-iso-propylbenzyl)phenoxy]methylphosphonic acid]
change in vivo at 0.2 mg/kg/day (plasma cholesterol; [3]): -13.5%

Ki [1]: 9.7 nM
Ki [2]: 62 nM
SMILES: CCc1cc(Cc2c(C)cc(OCP(=O)(O)O)cc2C)ccc1O [Compound 7-8, [3,5-dimethyl-4-[3′-ethyl-4′-hydroxybenzyl]phenoxy]methylphosphonic acid]
change in vivo at 0.2 mg/kg/day (plasma cholesterol; [3]): -28.6%

Ki ([1]; SPA data): 5.4 nM
Ki ([2]; SPA data): 110 nM
SMILES: CCC(CC)c1cc(Cc2c(C)cc(OCP(=O)(O)O)cc2C)ccc1O [Compound 7-9, [3,5-dimethyl-4-[3′-(1-ethylpropyl)-4′-hydroxybenzyl]phenoxy]methylphosphonic acid]
change in vivo at 0.2 mg/kg/day (plasma cholesterol; [3]): -63.2%
change in vivo at 0.2 mg/kg/day (plasma cholesterol; [4]): -38.4%

Ki ([1]; SPA data): 48 nM
Ki ([2]; SPA data): 112 nM
SMILES: Cc1cc(Cc2c(C)cc(OCP(=O)(O)O)cc2C)cc(C(C)C)c1O [Compound 7-10, [3,5-dimethyl-4-(4′-hydroxy-3′-iso-propyl-5′-methyl benzyl)phenoxy]methylphosphonic Acid]
change in vivo at 0.2 mg/kg/day (plasma cholesterol; [3]): -25.8%

Ki ([1]; SPA data): 52 nM
Ki ([2]; SPA data): 429 nM
SMILES: CC(C)c1cc(Cc2c(Cl)cc(OCP(=O)(O)O)cc2Cl)cc(Br)c1O [Compound 7-14, [3,5-dichloro-4-(5′-bromo-4′-hydroxy-3′-iso-propylbenzyl)phenoxy]methylphosphonic acid]
change in vivo at 0.2 mg/kg/day (plasma cholesterol; [3]): -32.9%

SMILES: CCC(C)c1cc(Cc2c(C)cc(OCP(=O)(OCOC(=O)C(C)(C)C)OCOC(=O)C(C)(C)C)cc2C)ccc1O (stereo not drawn) [Compound 12-4, Di-(pivaloyloxymethyl)[3,5-dimethyl-4-(4′-hydroxy-3′-sec-butylbenzyl)phenoxy]methylphosphonate]
change in vivo at 0.5 mg/kg/day (plasma cholesterol; [5]): -30.5%

SMILES: CC(C)c1cc(Oc2c(Br)cc(CP(=O)(OCOC(=O)C(C)(C)C)OCOC(=O)C(C)(C)C)cc2Br)ccc1O [Compound 12-5, Di-(pivaloyloxymethyl)[3,5-dibromo-4-(4′-hydroxy-3′-iso-propylphenoxy)benzyl]phosphonate]
change in vivo at 0.5 mg/kg/day (plasma cholesterol; [5]): -32.5%
cholesterol lowering (plasma cholesterol): demonstrated a significant lowering of cholesterol

SMILES: CC(C)c1cc(Oc2c(I)cc(OCP(=O)(OCOC(=O)C(C)(C)C)OCOC(=O)C(C)(C)C)cc2I)ccc1O [Compound 12-7, Di(pivaloyloxymethyl)[3,5-diiodo-4-(4′-hydroxy-3′-iso-propylphenoxy)phenoxy]methylphosphonate]
% Cholesterol Lowering (plasma cholesterol; [6]): −39.1%

SMILES: CC(C)c1cc(Cc2c(Cl)cc(OCP(=O)(OCOC(=O)C(C)(C)C)OCOC(=O)C(C)(C)C)cc2Cl)ccc1O [Compound 12-8, Di(pivaloyloxymethyl)[3,5-dichloro-4-(4′-hydroxy-3′-iso-propylbenzyl)phenoxy]methylphosphonate]
change in vivo at 0.5 mg/kg/day (plasma cholesterol; [5]): -33.7%

SMILES: CC(C)c1cc(Oc2c(Cl)c(F)nc(NCP(=O)(OCOC(=O)C(C)(C)C)OCOC(=O)C(C)(C)C)c2Cl)ccc1O [Compound 12-9]
efficacy in lowering cholesterol (plasma cholesterol): not efficacious

SMILES: CCC(C)c1cc(Cc2c(C)cc(OC[P@@]3(=O)OCC[C@@H](c4cccc(Cl)c4)O3)cc2C)ccc1O (stereo partly drawn) [Compound 13-8, Cis-(S)-2-[(3,5-dimethyl-4-(4′-hydroxy-3′-sec-butylbenzyl)phenoxy)methyl]-4-(3-chlorophenyl)-2-oxo-2λ^5-[1,3,2]-dioxaphosphonane]
change in vivo at 0.5 mg/kg/day (plasma cholesterol; [5]): -26.5%

SMILES: CC(C)c1cc(Oc2c(Br)cc(C[P@@]3(=O)OCC[C@@H](c4cccc(Cl)c4)O3)cc2Br)ccc1O [Compound 13-9, Cis-(S)-2-[3,5-dibromo-4-(4′-hydroxy-3′-iso-propylphenoxy)benzyl]-4-(3-chlorophenyl)-2-oxo2λ^5-[1,3,2]-dioxaphosphonane]
change in vivo at 0.5 mg/kg/day (plasma cholesterol; [5]): -10.9%
cholesterol lowering (plasma cholesterol): failed to demonstrate cholesterol lowering

SMILES: CC(C)c1cc(Oc2c(I)cc(OC[P@@]3(=O)OCC[C@@H](c4cccc(Cl)c4)O3)cc2I)ccc1O [Compound 13-10]
change in vivo at 0.5 mg/kg/day (plasma cholesterol; [5]): -25.8%

SMILES: CCOC(=O)[C@H](C)NP(=O)(COc1cc(C)c(Cc2ccc(O)c(C(C)CC)c2)c(C)c1)N[C@@H](C)C(=O)OCC (stereo partly drawn) [Compound 15-4, di-N-(L-1-ethoxycarbonylethylamino)[3,5-dimethyl-4-(4′-hydroxy-3′-sec-butylbenzyl)phenoxy]methylphosphonamide]
change in vivo at 0.5 mg/kg/day (plasma cholesterol; [5]): -39.6%

SMILES: CCOC(=O)[C@H](C)NP(=O)(Cc1cc(Br)c(Oc2ccc(O)c(C(C)C)c2)c(Br)c1)N[C@@H](C)C(=O)OCC [Compound 15-5, di-N-(L-1-ethoxycarbonylethylamino)[3,5-dibromo-4-(4′-hydroxy-3′-iso-propylphenoxy)benzyl]phosphonamide]
change in vivo at 0.5 mg/kg/day (plasma cholesterol; [5]): -29.9%
cholesterol lowering (plasma cholesterol): demonstrated a significant lowering of cholesterol

SMILES: CCOC(=O)[C@H](C)NP(=O)(COc1cc(Cl)c(Cc2ccc(O)c(C(C)C)c2)c(Cl)c1)N[C@@H](C)C(=O)OCC [Compound 15-7]
% Cholesterol Lowering (plasma cholesterol; [6]): −29.1%

SMILES: CCOC(=O)[C@H](C)NP(=O)(COc1cc(I)c(Oc2ccc(O)c(C(C)C)c2)c(I)c1)N[C@@H](C)C(=O)OCC [Compound 15-8]
change in vivo at 0.5 mg/kg/day (plasma cholesterol; [5]): -31.1%

SMILES: CCOP(=O)(Cc1cc(Br)c(Oc2ccc(O)c(C(C)C)c2)c(Br)c1)OCC [Compound 19-1, diethyl[3,5-dibromo-4-(4′-hydroxy-3′-iso-propylphenoxy)]benzylphosphonate]
change in vivo at 0.5 mg/kg/day (plasma cholesterol; po): -6.6%
cholesterol lowering (plasma cholesterol): failed to demonstrate cholesterol lowering

Ki [1]: 1.5 nM
SMILES: CC(C)c1cc(Oc2c(Br)cc(NCP(=O)(O)O)cc2Br)ccc1O [Compound 22-1, [3,5-dibromo-4-(4′-hydroxy-3′-iso-propylphenoxy)phenylamino]methylphosphonic acid]
change in vivo at 0.2 mg/kg/day (plasma cholesterol; [4]): -19.9%

Ki [1]: 31 nM
SMILES: Cc1cc(CCP(=O)(O)O)cc(C)c1Cc1ccc(O)c(C(C)C)c1 [Compound 24-1, 2-[3,5-dimethyl-4-(4′-hydroxy-3′-iso-propylbenzyl)phenyl]ethylphosphonic acid]
change in vivo at 0.2 mg/kg/day (plasma cholesterol; [3]): -35.4%

SMILES: Cc1cc(OC[P@@]2(=O)OCC[C@@H](c3cccc(Br)c3)O2)cc(C)c1Cc1ccc(O)c(C(C)C)c1 [cis-13-2]
efficacy in lowering cholesterol (plasma cholesterol): not efficacious
